This is an account of results in patent US20230085307A1, “PYRIDAZINONE COMPOUND AND HERBICIDE” (NISSAN CHEMICAL CORPORATION, priority 2019, published 2023).

The subject of one experiment is late watergrass. As to the kind of experiment: Test Example 1: herbicidal activity, application before weed generation under submerged conditions (Table 16, symbol A). It counts as in vivo, late watergrass (Echinochloa oryzicola). To be noted: 320 g/ha applied herbicide. A digest of the protocol:
(§1)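 Alluvial soil was flooded to 4 cm depth, weed seeds were sown mixed and 2.5-leaf rice seedlings were transplanted. On sowing day, the compound's emulsion, diluted in water to a set dose, was applied to the water surface. Plants grew at 25–30 °C and were scored 0–5 after three weeks.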

Experiment [1] concerns Japanese bulrush. Nature of the experiment: Test Example 1: herbicidal activity, application before weed generation under submerged conditions (Table 16, symbol B). Conditions: 320 g/ha applied herbicide. The class given is in vivo, Japanese bulrush (Schoenoplectus juncoides). A digest of the protocol: as §1
Experiment [2] has as its system Japanese bulrush. As to the kind of experiment: Test Example 2: herbicidal activity, application during weed generation under submerged conditions (Table 17, symbol B). To be noted: AAH 320 g/ha; application during weed generation, submerged conditions. It counts as in vivo, Japanese bulrush (Schoenoplectus juncoides). The gist of the method: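 Alluvial soil in Wagner pots was flooded to 4 cm depth and sown with the three weeds together; pots were kept in a greenhouse at 25° C. to 30° C. At the one to two leaf stage, an emulsion formulation diluted in water to a set rate went onto the water surface; scored three weeks later.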

Experiment [3] concerns barnyard grass. As to the kind of experiment: Test Example 3: herbicidal effect by foliage application, Wagner pot (Table 18, symbol H). It counts as in vivo, barnyard grass (Echinochloa crus-galli). To be noted: amount of applied herbicide 320 g/ha. A digest of the protocol:
(§2)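 Plants were sown in alluvial soil held under 0.1–0.5 cm standing water and grown 14 days in a greenhouse at 25–30 °C. An emulsifiable formulation, water-diluted to the set dose, was then sprayed onto the foliage, and effects were scored three weeks later using previously defined criteria.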

In a further experiment the test system is Chinese sprangletop. As to the kind of experiment: Test Example 3: herbicidal effect by foliage application, Wagner pot (Table 18, symbol D). The class given is in vivo, chinese sprangletop (Leptochloa chinensis). Conditions: amount of applied herbicide 320 g/ha. The gist of the method:
as §2

Experiment [4] deals with southern crabgrass. As to the kind of experiment: Test Example 4: herbicidal effect by soil treatment (Table 19, symbol F). It counts as in vivo, southern crabgrass (Digitaria ciliaris). To be noted: amount of applied herbicide 320 g/ha. A digest of the protocol:
(§3)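 Seeds were sown in sterilized diluvial soil and covered with about 1.5 cm of soil. An emulsion formulation diluted with water to a predetermined herbicide amount was sprayed evenly onto the soil surface. Plants grew in a greenhouse at 25° C. to 30° C., and the effect was scored three weeks after application using criteria from an earlier test.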

The subject of experiment [5] is barnyard grass. Nature of the experiment: Test Example 4: herbicidal effect by soil treatment (Table 19, symbol H). It counts as in vivo, barnyard grass (Echinochloa crus-galli). To be noted: amount of applied herbicide 320 g/ha. A digest of the protocol: as §3
Experiment [6] has as its system windgrass. As to the kind of experiment: Test Example 4: herbicidal effect by soil treatment (Table 19, symbol L). To be noted: amount of applied herbicide 320 g/ha. The class given is in vivo, windgrass (Apera spica-venti). The gist of the method: as §3
The test system of experiment [7] is velvetleaf. Nature of the experiment: Test Example 4: herbicidal effect by soil treatment (Table 19, symbol M). The class given is in vivo, velvetleaf (Abutilon theophrasti). To be noted: amount of applied herbicide 320 g/ha. The gist of the method:
as §3

Experiment [8] relates to lambsquarters. As to the kind of experiment: Test Example 4: herbicidal effect by soil treatment (Table 19, symbol O). It counts as in vivo, lambsquarters (Chenopodium album). Conditions: amount of applied herbicide 320 g/ha. A digest of the protocol: as §3
In experiment [9] the test system is southern crabgrass. As to the kind of experiment: Test Example 5: herbicidal effect by foliage application, plastic box (Table 20, symbol F). It counts as in vivo, southern crabgrass (Digitaria ciliaris). Conditions: foliage application, AAH 320 g/ha, evaluated three weeks after application. The gist of the method:
(§4)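 Plants sown in sterilized diluvial soil and grown 14 days in a greenhouse at 25° C to 30° C, then sprayed on the foliage with the compound's emulsion diluted in water to a predetermined herbicide amount. Injury to weeds and crops scored three weeks after application on a visual rating scale.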

The test system of another experiment is wild oat. As to the kind of experiment: Test Example 5: herbicidal effect by foliage application, plastic box (Table 20, symbol I). It counts as in vivo, wild oat (Avena fatua). Conditions: foliage application, AAH 320 g/ha, evaluated three weeks after application. A digest of the protocol:
as §4

In another experiment the test system is Italian ryegrass. Nature of the experiment: Test Example 5: herbicidal effect by foliage application, plastic box (Table 20, symbol K). It counts as in vivo, Italian ryegrass (Lolium multiflorum). To be noted: foliage application, AAH 320 g/ha, evaluated three weeks after application. A digest of the protocol:
as §4

The subject of experiment [10] is windgrass. Nature of the experiment: Test Example 5: herbicidal effect by foliage application, plastic box (Table 20, symbol L). It counts as in vivo, windgrass (Apera spica-venti). To be noted: foliage application, AAH 320 g/ha, evaluated three weeks after application. A digest of the protocol:
as §4

The test system of experiment [11] is velvetleaf. Nature of the experiment: Test Example 5: herbicidal effect by foliage application, plastic box (Table 20, symbol M). It counts as in vivo, velvetleaf (Abutilon theophrasti). Conditions: foliage application, AAH 320 g/ha, evaluated three weeks after application. The gist of the method:
as §4

Experiment [12] has as its system lambsquarters. Nature of the experiment: Test Example 5: herbicidal effect by foliage application, plastic box (Table 20, symbol O). To be noted: foliage application, AAH 320 g/ha, evaluated three weeks after application. It counts as in vivo, lambsquarters (Chenopodium album). A digest of the protocol:
as §4

The subject of another experiment is persian speedwell. Nature of the experiment: Test Example 5: herbicidal effect by foliage application, plastic box (Table 20, symbol R). It counts as in vivo, Persian speedwell (Veronica persica). Conditions: foliage application, AAH 320 g/ha, evaluated three weeks after application. The gist of the method: as §4

Consider `Cc1nn(C)c(=O)c(-c2c(-c3ccc(CSCC(F)(F)F)cc3)sc3ccc(F)cc23)c1O` [2-331], for which the “Herbicidal effect on A: late watergrass (grade 0-5)” value in the experiment with late watergrass is 3 (Herbicidal rate of 40% or more and less than 70%). In the experiment with Japanese bulrush [1], the “Herbicidal effect on B: Japanese bulrush (grade 0-5)” value is 3 (Herbicidal rate of 40% or more and less than 70%). In addition, the “herbicidal effect rating, B: Japanese bulrush” value in the experiment with Japanese bulrush [2] is recorded as 0 (Herbicidal rate of 5% or less (almost no effect)). For the same molecule, the “herbicidal effect on H: barnyard grass” value with barnyard grass [3] is 5 (Herbicidal rate of 90% or more (almost completely withered)); in the experiment with barnyard grass [5], 3 (Herbicidal rate of 40% or more and less than 70%). Also, the “herbicidal effect on D: Chinese sprangletop” value with Chinese sprangletop was 0 (Herbicidal rate of 5% or less (almost no effect)). In the experiment with southern crabgrass [4], the “herbicidal effect on F: southern crabgrass” value is 3 (Herbicidal rate of 40% or more and less than 70%). Moreover, in the experiment on windgrass [6], the “herbicidal effect on L: windgrass” value is 0 (Herbicidal rate of 5% or less (almost no effect)). In the experiment on velvetleaf [7], the “herbicidal effect on M: velvetleaf” value was 2 (Herbicidal rate of 20% or more and less than 40%). For the same molecule, the “herbicidal effect on O: lambsquarters” value with lambsquarters [8] was 4 (Herbicidal rate of 70% or more and less than 90%). For the same molecule, the “F: southern crabgrass, herbicidal effect (criteria 0-5)” value with southern crabgrass [9] is on record as 5 (Herbicidal rate of 90% or more (almost completely withered)). For the same molecule, the “I: wild oat, herbicidal effect (criteria 0-5)” value with wild oat is 3 (Herbicidal rate of 40% or more and less than 70%). In addition, the “K: Italian ryegrass, herbicidal effect (criteria 0-5)” value in the experiment with Italian ryegrass is 4 (Herbicidal rate of 70% or more and less than 90%). In the experiment with windgrass [10], the “L: windgrass, herbicidal effect (criteria 0-5)” value was 4 (Herbicidal rate of 70% or more and less than 90%). Moreover, in the experiment with velvetleaf [11], the “M: velvetleaf, herbicidal effect (criteria 0-5)” value is 5 (Herbicidal rate of 90% or more (almost completely withered)). Also, the “O: lambsquarters, herbicidal effect (criteria 0-5)” value with lambsquarters [12] is given as 5 (Herbicidal rate of 90% or more (almost completely withered)). Besides, the “R: persian speedwell, herbicidal effect (criteria 0-5)” value in the experiment with persian speedwell was 5 (Herbicidal rate of 90% or more (almost completely withered)).
`Cc1nn(C)c(=O)c(-c2c(-c3ccc(C#N)cc3)sc3ccc(F)cc23)c1O` [2-340]: the “Herbicidal effect on A: late watergrass (grade 0-5)” value in the experiment on late watergrass is on record as 5 (Herbicidal rate of 90% or more (almost completely withered)). In the experiment with Japanese bulrush [1], the “Herbicidal effect on B: Japanese bulrush (grade 0-5)” value was 5 (Herbicidal rate of 90% or more (almost completely withered)). For the same molecule, in the experiment with Japanese bulrush [2], the “herbicidal effect rating, B: Japanese bulrush” value is 4 (Herbicidal rate of 70% or more and less than 90%). For the same molecule, the “herbicidal effect on H: barnyard grass” value in the experiment on barnyard grass [3] and with barnyard grass [5] was 5 (Herbicidal rate of 90% or more (almost completely withered)) each time. For the same molecule, the “herbicidal effect on D: Chinese sprangletop” value in the experiment on Chinese sprangletop is reported as 5 (Herbicidal rate of 90% or more (almost completely withered)). Besides, the “herbicidal effect on F: southern crabgrass” value in the experiment on southern crabgrass [4] is 5 (Herbicidal rate of 90% or more (almost completely withered)). The “herbicidal effect on L: windgrass” value with windgrass [6] was 4 (Herbicidal rate of 70% or more and less than 90%). The “herbicidal effect on M: velvetleaf” value with velvetleaf [7] is recorded as 5 (Herbicidal rate of 90% or more (almost completely withered)). For the same molecule, the “herbicidal effect on O: lambsquarters” value in the experiment on lambsquarters [8] is given as 5 (Herbicidal rate of 90% or more (almost completely withered)). For the same molecule, in the experiment on southern crabgrass [9], the “F: southern crabgrass, herbicidal effect (criteria 0-5)” value is 5 (Herbicidal rate of 90% or more (almost completely withered)). The “I: wild oat, herbicidal effect (criteria 0-5)” value in the experiment on wild oat is 5 (Herbicidal rate of 90% or more (almost completely withered)). For the same molecule, the “K: Italian ryegrass, herbicidal effect (criteria 0-5)” value with Italian ryegrass is 5 (Herbicidal rate of 90% or more (almost completely withered)). Besides, the “L: windgrass, herbicidal effect (criteria 0-5)” value in the experiment with windgrass [10] is 4 (Herbicidal rate of 70% or more and less than 90%). In the experiment with velvetleaf [11], the “M: velvetleaf, herbicidal effect (criteria 0-5)” value is on record as 5 (Herbicidal rate of 90% or more (almost completely withered)). Also, the “O: lambsquarters, herbicidal effect (criteria 0-5)” value in the experiment on lambsquarters [12] is recorded as 5 (Herbicidal rate of 90% or more (almost completely withered)). Moreover, the “R: persian speedwell, herbicidal effect (criteria 0-5)” value in the experiment with persian speedwell is given as 5 (Herbicidal rate of 90% or more (almost completely withered)).
